Experiments:
human EP4 receptor = biological target: T1, human EP4 receptor (Homo sapiens, UniProt P35408); test: Agonist activity measurement (cAMP production) using human EP4 receptor expressing HEK293 cells; assay type: cell-based; conditions: test compound concentration of 10 μM, HEK293 stably expressing human EP4
T1 construct: expressed in transfected cells
Description: Agonist Activity Measurement Using Human EP4 Receptor Expressing Cells
In order to investigate EP4 receptor agonist activity of the compounds of the present invention, cAMP production was measured by using HEK293 in which the human EP4 receptor was stably expressed.
As a result of searching for prostaglandin E receptors using Refseq Database, the gene information of human EP4 (NM_000958) receptor was obtained. On the basis of the sequence information, the human EP4 receptor gene was cloned by PCR using human cDNA as a template in a conventional manner to establish HEK293 in which the human EP4 receptor was stably expressed. These cells were inoculated on a 96-well poly-D-lysine coated plate at a density of 2×10^4 cells/well, and cultured for 1 day. The medium in the wells was removed by aspiration, 80 μL of Dulbecco's modified Eagle's medium was added to each well, and the cells were incubated at 37° C. for 15 minutes. Then, 20 μL of an assay medium (Dulbecco's modified Eagle's medium containing 100 mM HEPES and 1 mM IBMX) containing PGE2 or a test compound (at 5-fold concentration of the final concentration) was added to start the reaction, and the reaction was allowed at 37° C. for 30 minutes. Then, the medium was removed by aspiration, and the reaction was terminated by adding 100 μL of Assay/Lysis Buffer included in cAMP Screen Kit (produced by Applied Biosystems). Then, the cells were incubated at 37° C. for 30 minutes, and used as a sample for cAMP quantification. By using this sample, amount of cAMP in the sample was quantified according to the method attached to cAMP Screen Kit.

rat bone marrow cells = test: Bone nodule formation action in rat bone marrow cells; assay type: cell-based
Description: Bone Nodule Formation Action in Rat Bone Marrow Cells
In order to investigate osteogenesis promoting action of the compounds of the present invention, the compounds were made to act on cultured rat bone marrow cells, and the number of formed bone nodule was counted.
As rat bone marrow cells, mesenchymal cells (KEM100) derived from rat bone marrow purchased from Dainippon Pharmaceutical were used. The cells stored in liquid nitrogen were thawed at 37° C., then suspended in a phosphate-buffered saline, and centrifuged at 900 rpm for 5 minutes. The supernatant was removed, and the cells were suspended again in a MEM culture medium (produced by GIBCO) containing 10% fetal bovine serum (produced by GIBCO). After the number of cells was counted, the cells were inoculated on a 12-well plate (produced by IWAKI) at a cell density of 1×10^4 cells/cm^2, and cultured at 37° C. in a 5% CO2 incubator. From the next day of the inoculation, the medium was exchanged with the α MEM culture medium containing 10% fetal bovine serum every 2 or 3 days, and the cells were proliferated to the confluent state. The addition of the compound was conducted from the next day after the cells reached confluent. […]

T1 sequence (P35408 whole entry): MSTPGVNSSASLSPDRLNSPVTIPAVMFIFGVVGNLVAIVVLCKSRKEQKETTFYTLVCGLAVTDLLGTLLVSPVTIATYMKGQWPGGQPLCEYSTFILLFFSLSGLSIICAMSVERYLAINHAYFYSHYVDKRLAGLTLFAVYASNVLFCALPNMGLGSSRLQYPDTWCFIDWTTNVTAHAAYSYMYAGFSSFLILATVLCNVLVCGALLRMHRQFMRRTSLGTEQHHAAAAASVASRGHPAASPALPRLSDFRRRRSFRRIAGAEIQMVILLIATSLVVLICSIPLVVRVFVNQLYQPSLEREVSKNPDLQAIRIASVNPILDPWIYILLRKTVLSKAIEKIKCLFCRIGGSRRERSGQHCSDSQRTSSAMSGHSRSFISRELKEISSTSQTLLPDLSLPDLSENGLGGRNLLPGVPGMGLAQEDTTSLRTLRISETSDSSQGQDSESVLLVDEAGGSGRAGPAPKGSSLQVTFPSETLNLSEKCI

Row | increase of cAMP (human EP4 receptor) | SMILES | bone nodule formation promoting action (number of mineralized bone nodule formed) (rat bone marrow cells; concentration ranging from 1 nM to 10 μM, von Kossa staining 21 to 28 days after addition) | cytotoxicity (rat bone marrow cells; rat bone marrow cells, 1 nM to 10 μM)
1 | Increase of cAMP was observed | O=C(O)c1ccc(CCN2C(=O)CCCN2CCC(O)Cc2cccc(C(F)(F)F)c2)cc1 (stereo not shown) [IAH-H001, 4-[2-(2-{3-hydroxy-4-[3-(trifluoromethyl)phenyl]butyl}-6-oxotetrahydropyridazin-1-yl)ethyl]benzoic acid] | exhibited an bone nodule formation promoting action in a dose-dependent manner | no cytotoxicity
2 | Increase of cAMP was observed | O=C(O)c1ccc(CCN2C(=O)CCCN2CCC(O)c2ccc(F)cc2)cc1 (stereo not shown) [IAH-H003, 4-(2-{2-[3-hydroxy-3-(4-fluorophenyl)propyl]-6-oxotetrahydro-pyridazin-1-yl}ethyl)benzoic acid] |  | 
3 | Increase of cAMP was observed | O=C(O)c1ccc(CCN2C(=O)CCCN2CCC(O)c2cccc(-c3ccc(F)cc3)c2)cc1 (stereo not shown) [IAH-H004, 4-[2-(2-{3-hydroxy-3-[3-(4-fluorophenyl)phenyl]propyl}-6-oxotetrahydropyridazin-1-yl)ethyl]benzoic acid] |  | 
4 | Increase of cAMP was observed | COc1cccc(CC(O)CCN2CCCC(=O)N2CCc2ccc(C(=O)O)cc2)c1 (stereo not shown) [IAH-H005, 4-(2-{2-[3-hydroxy-4-(3-methoxyphenyl)butyl]-6-oxotetrahydro-pyridazin-1-yl}ethyl)benzoic acid] |  | 
5 | Increase of cAMP was observed | O=C(O)c1ccc(CCN2C(=O)CCCN2CCC(O)Cc2cccc(Cl)c2)cc1 (stereo not shown) [IAH-H024, 4-[2-(2-{4-[3-chlorophenyl]-3-hydroxybutyl}-6-oxotetrahydropyridazin-1-yl)ethyl]benzoic acid] |  | 
6 | Increase of cAMP was observed | O=C(O)COc1cccc(CN2C(=O)CCCN2CCC(O)Cc2cccc(C(F)(F)F)c2)c1 (stereo not shown) [ICH-H001, 2-{3-[(2-{3-hydroxy-4-[3-(trifluoromethyl)phenyl]butyl}-6-oxotetrahydropyridazin-1-yl)methyl]phenyloxy}acetic acid] |  | 
7 | Increase of cAMP was observed | O=C(O)c1cccc(OCCN2C(=O)CCCN2CCC(O)Cc2cccc(C(F)(F)F)c2)c1 (stereo not shown) [IDH-H001, 3-[2-(2-{3-hydroxy-4-[3-(trifluoromethyl)phenyl]butyl}-6-oxotetrahydropyridazin-1-yl)ethyloxy]benzoic acid] |  | 
8 | Increase of cAMP was observed | O=C(O)c1ccc(OCCN2C(=O)CCCN2CCC(O)Cc2cccc(C(F)(F)F)c2)cc1 (stereo not shown) [IEH-H001, 4-[2-(2-{3-hydroxy-4-[3-(trifluoromethyl)phenyl]butyl}-6-oxo-tetrahydropyridazin-1-yl)ethyloxy]benzoic acid] |  | 
9 | Increase of cAMP was observed | O=C(O)c1cccc(CCCN2C(=O)CCCN2CCC(O)Cc2cccc(C(F)(F)F)c2)c1 (stereo not shown) [IFH-H001, 3-[3-(2-{3-hydroxy-4-[3-(trifluoromethyl)phenyl]butyl}-6-oxo-tetrahydropyridazin-1-yl)propyl]benzoic acid] |  | 
10 | Increase of cAMP was observed | O=C(O)c1ccc(CCCN2C(=O)CCCN2CCC(O)Cc2cccc(C(F)(F)F)c2)cc1 (stereo not shown) [IGH-H001, 4-[3-(2-{3-hydroxy-4-[3-(trifluoromethyl)phenyl]butyl}-6-oxotetrahydropyridazin-1-yl)propyl]benzoic acid] |  | 
11 | Increase of cAMP was observed | O=C(O)c1ccc(CCCN2C(=O)CCCN2CCC(O)Cc2cccc(C(F)(F)F)c2)o1 (stereo not shown) [IHH-H001, 5-[3-(2-{3-hydroxy-4-[3-(trifluoromethyl)phenyl]butyl}-6-oxotetrahydropyridazin-1-yl)propyl]furan-2-carboxylic acid] |  | 
12 | Increase of cAMP was observed | O=C(O)Cc1ccc(CN2C(=O)CCCN2CCC(O)Cc2cccc(C(F)(F)F)c2)cc1 (stereo not shown) [IKH-H001, 2-{4-[(2-{3-hydroxy-4-[3-(trifluoromethyl)phenyl]butyl}-6-oxotetrahydropyridazin-1-yl)methyl]phenyl}acetic acid] |  | 
13 | Increase of cAMP was observed | O=C(O)Cc1cccc(CN2C(=O)CCCN2CCC(O)Cc2cccc(C(F)(F)F)c2)c1 (stereo not shown) [ILH-H001, 2-{3-[(2-{3-hydroxy-4-[3-(trifluoromethyl)phenyl]butyl}-6-oxotetrahydropyridazin-1-yl)methyl]phenyl}acetic acid] |  | 
14 | Increase of cAMP was observed | O=C(O)C=Cc1cccc(CN2C(=O)CCCN2CCC(O)Cc2cccc(C(F)(F)F)c2)c1 (stereo not shown) [IOH-H001, 3-{3-[(2-{3-hydroxy-4-[3-(trifluoromethyl)phenyl]butyl}-6-oxotetrahydropyridazin-1-yl)methyl]phenyl}acrylic acid] |  | 
15 | Increase of cAMP was observed | O=C(O)CCc1cccc(CN2C(=O)CCCN2CCC(O)Cc2cccc(C(F)(F)F)c2)c1 (stereo not shown) [IPH-H001, 3-{3-[(2-{3-hydroxy-4-[3-(trifluoromethyl)phenyl]butyl}-6-oxotetrahydropyridazin-1-yl)methyl]phenyl}propionic acid] |  | 
16 | Increase of cAMP was observed | O=C(O)c1ccc(CCN2C(=S)CCCN2CCC(O)Cc2cccc(C(F)(F)F)c2)cc1 (stereo not shown) [ITH-H001, 4-[2-(2-{3-hydroxy-4-[3-(trifluoromethyl)phenyl]butyl}-6-thioxotetrahydropyridazin-1-yl)ethyl]benzoic acid] |  | 

Row | SMILES | increase of cAMP (human EP4 receptor) | bone nodule formation promoting action (number of mineralized bone nodule formed) (rat bone marrow cells; concentration ranging from 1 nM to 10 μM, von Kossa staining 21 to 28 days after addition) | cytotoxicity (rat bone marrow cells; rat bone marrow cells, 1 nM to 10 μM)
17 | O=C(O)c1ccc(CCN2C(=O)CCCN2CCC(O)c2ccccc2)cc1 (stereo not shown) [IAH-H002] | Increase of cAMP was observed |  | 

Source: patent publication US7531533B2, “6-Membered heterocyclic compound and use thereof” (Asahi Kasei Pharma Corporation, priority 2005, dated 2009)
